# PMC6572064, “Discovery of 2-(1-(3-(4-Chloroxyphenyl)-3-oxo- propyl)pyrrolidine-3-yl)-1H-benzo[d]imidazole-4-carboxamide: A Potent Poly(ADP-ribose) Polymerase (PARP) Inhibitor for Treatment of Cancer” (Molecules, 2019)
# Read-outs that look alike come from different tables or passages of the source.
# Legend:
# [1] = target: T1, PARP-1 (Homo sapiens, UniProt P09874); experiment: PARP-1 inhibition assay (PARP-1 Chemiluminescent Assay Kit, BPS Bioscience); assay type: biochemical; conditions: 10 nM compound
# T1 construct: purchased BPS Bioscience 80569
# T1 sequence (P09874 whole entry): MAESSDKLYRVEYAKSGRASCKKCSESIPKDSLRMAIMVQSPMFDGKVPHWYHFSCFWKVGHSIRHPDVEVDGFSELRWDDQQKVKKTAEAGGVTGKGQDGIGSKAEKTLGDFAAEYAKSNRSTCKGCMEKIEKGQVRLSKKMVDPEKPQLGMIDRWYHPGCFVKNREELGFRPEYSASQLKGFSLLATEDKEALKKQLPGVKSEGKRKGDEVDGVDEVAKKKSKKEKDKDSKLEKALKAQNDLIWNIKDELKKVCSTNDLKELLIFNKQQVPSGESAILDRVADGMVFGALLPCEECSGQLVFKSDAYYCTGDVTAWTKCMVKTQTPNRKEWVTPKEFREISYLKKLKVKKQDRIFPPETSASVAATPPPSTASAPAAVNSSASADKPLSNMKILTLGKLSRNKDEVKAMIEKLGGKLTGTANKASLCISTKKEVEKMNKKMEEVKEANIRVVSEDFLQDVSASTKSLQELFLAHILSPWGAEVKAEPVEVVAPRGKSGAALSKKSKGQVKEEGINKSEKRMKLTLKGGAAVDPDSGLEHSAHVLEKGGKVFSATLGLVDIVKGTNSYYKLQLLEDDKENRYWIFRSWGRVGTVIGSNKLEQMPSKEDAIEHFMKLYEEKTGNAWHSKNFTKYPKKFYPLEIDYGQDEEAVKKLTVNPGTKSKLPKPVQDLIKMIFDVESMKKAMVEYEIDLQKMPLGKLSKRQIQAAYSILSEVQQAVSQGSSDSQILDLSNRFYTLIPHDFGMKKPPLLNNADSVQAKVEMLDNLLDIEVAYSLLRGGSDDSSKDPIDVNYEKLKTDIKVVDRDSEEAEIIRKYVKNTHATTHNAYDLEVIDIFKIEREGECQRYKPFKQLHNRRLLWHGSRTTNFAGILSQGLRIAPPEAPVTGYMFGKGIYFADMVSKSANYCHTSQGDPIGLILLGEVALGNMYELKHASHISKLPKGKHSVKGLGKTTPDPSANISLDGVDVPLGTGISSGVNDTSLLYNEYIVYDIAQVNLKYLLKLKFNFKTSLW
# Protocol: (§1) The PARP-1 and PARP-2 inhibition assays were performed in outsourcing, by a CRO company, Shanghai Medicilon Inc. (Shanghai, China). […] Briefly, PARP-1 or PARP-2 biotinylated substrate was incubated with compounds or solvent control at varying concentrations and an assay buffer containing the PARP-1 or PARP-2 enzyme.
# [2] = target: T2, PARP-2 (Homo sapiens, UniProt Q9UGN5); experiment: PARP-2 inhibition assay (PARP-2 Chemiluminescent Assay Kit, BPS Bioscience); assay type: biochemical; conditions: 10 nM compound
# T2 construct: purchased BPS Bioscience 80552
# T2 sequence (Q9UGN5 whole entry): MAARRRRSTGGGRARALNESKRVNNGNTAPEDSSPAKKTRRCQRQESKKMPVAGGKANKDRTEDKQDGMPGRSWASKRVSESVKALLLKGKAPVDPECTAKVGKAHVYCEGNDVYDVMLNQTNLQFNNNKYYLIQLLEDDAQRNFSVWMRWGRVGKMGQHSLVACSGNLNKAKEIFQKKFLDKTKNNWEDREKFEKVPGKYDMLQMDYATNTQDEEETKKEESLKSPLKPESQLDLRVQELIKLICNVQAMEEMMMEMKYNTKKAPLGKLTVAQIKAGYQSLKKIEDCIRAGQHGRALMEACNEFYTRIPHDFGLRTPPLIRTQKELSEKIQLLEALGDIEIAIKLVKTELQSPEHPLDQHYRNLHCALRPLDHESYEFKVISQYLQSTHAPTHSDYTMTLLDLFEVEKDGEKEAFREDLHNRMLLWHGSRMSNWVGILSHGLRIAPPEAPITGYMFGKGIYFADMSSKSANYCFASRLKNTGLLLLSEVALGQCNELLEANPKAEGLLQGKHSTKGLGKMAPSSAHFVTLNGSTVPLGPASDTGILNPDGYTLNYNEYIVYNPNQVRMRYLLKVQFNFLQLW
# Protocol: as §1
# [3] = test system: MDA-MB-436 (a BRCA-1-mutated breast cancer cell line); experiment: Cell proliferation assay, three-day, CellTiter-Glo, MDA-MB-436; assay type: cell-based; conditions: Homo sapiens; for inhibition at 0.00508 µM: MDA-MB-436, MDA-MB-436, Conc. 0.00508 uM; for inhibition at 0.0152 µM: MDA-MB-436, MDA-MB-436, Conc. 0.0152 uM; for inhibition at 0.0457 µM: MDA-MB-436, MDA-MB-436, Conc. 0.0457 uM; for inhibition at 0.41 µM: MDA-MB-436, MDA-MB-436, Conc. 0.41 uM; for inhibition at 1.23 µM: MDA-MB-436, MDA-MB-436, Conc. 1.23 uM; for inhibition at 3.7 µM: MDA-MB-436, MDA-MB-436, Conc. 3.70 uM; for inhibition at 11.11 µM: MDA-MB-436, MDA-MB-436, Conc. 11.11 uM; for inhibition at 33.33 µM: MDA-MB-436, MDA-MB-436, Conc. 33.33 uM; for inhibition at 100 µM: MDA-MB-436, MDA-MB-436, Conc. 100.00 uM
# Method in brief: (§2)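 Luminescent ATP read-out (CellTiter-Glo, 60 min at room temperature) quantified viability after a 72 h compound exposure at 37 °C, 5% CO2. Compounds, diluted from DMSO stocks into growth medium, were added to cells plated the previous day.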
# [4] = test system: CAPAN-1 (a BRCA-2-mutated pancreatic cancer cell line); experiment: Cell proliferation assay, three-day, CellTiter-Glo, CAPAN-1; assay type: cell-based; conditions: Homo sapiens; for inhibition at 0.00508 µM: CAPAN-1, Conc. 0.00508 uM; for inhibition at 0.0152 µM: CAPAN-1, Conc. 0.0152 uM; for inhibition at 0.0457 µM: CAPAN-1, Conc. 0.0457 uM; for inhibition at […]: CAPAN-1, Conc. 0.14 uM; for inhibition at 0.41 µM: CAPAN-1, Conc. 0.41 uM; for inhibition at 1.23 µM: CAPAN-1, Conc. 1.23 uM; for inhibition at 3.7 µM: CAPAN-1, Conc. 3.70 uM; for inhibition at 11.11 µM: CAPAN-1, Conc. 11.11 uM; for inhibition at 33.33 µM: CAPAN-1, Conc. 33.33 uM; for inhibition at 100 µM: CAPAN-1, Conc. 100.00 uM
# Method in brief: as §2
smiles,measurement,setting,value
"NCCCN1CCC(c2nc3c(C(N)=O)cccc3[nH]2)C1 (centres unmarked) [Compound 5cl, 2-(1-(3-Aminopropyl)pyrrolidin-3-yl)-1H-benzo[d]imidazole-4-carboxamide]",inhibition at 0.01 µM,"[1]; supplement sheet, read-out: 10 nM inhibition% PAPR-1",26.8%
same,inhibition at 0.01 µM,[1]; read-out: PARP-1 Inhibition % (10 nM),26.8%
same,inhibition at 0.01 µM,"[2]; supplement sheet, read-out: 10 nM inhibition% PAPR-2",46.4%
same,inhibition at 0.01 µM,[2]; read-out: PARP-2 Inhibition % (10 nM),46.4%
same,inhibition at 0.00508 µM,"[3]; replicate 1, read-out: Inh % 1",4.5%
same,inhibition at 0.00508 µM,"[3]; replicate 2, read-out: Inh % 2",-3.7%
same,inhibition at 0.0152 µM,"[3]; replicate 1, read-out: Inh % 1",0.4%
same,inhibition at 0.0152 µM,"[3]; replicate 2, read-out: Inh % 2",-4.9%
same,inhibition at 0.0457 µM,"[3]; replicate 1, read-out: Inh % 1",-13.5%
same,inhibition at 0.0457 µM,"[3]; replicate 2, read-out: Inh % 2",-10.1%
same,inhibition at 0.41 µM,"[3]; replicate 1, read-out: Inh % 1",-7.3%
same,inhibition at 0.41 µM,"[3]; replicate 2, read-out: Inh % 2",-7.6%
same,inhibition at 1.23 µM,"[3]; replicate 1, read-out: Inh % 1",-9%
same,inhibition at 1.23 µM,"[3]; replicate 2, read-out: Inh % 2",-8.7%
same,inhibition at 3.7 µM,"[3]; replicate 1, read-out: Inh % 1",-7.4%
same,inhibition at 3.7 µM,"[3]; replicate 2, read-out: Inh % 2",-9.8%
same,inhibition at 11.11 µM,"[3]; replicate 1, read-out: Inh % 1",-5.4%
same,inhibition at 11.11 µM,"[3]; replicate 2, read-out: Inh % 2",-5.2%
same,inhibition at 33.33 µM,"[3]; replicate 1, read-out: Inh % 1",1.9%
same,inhibition at 33.33 µM,"[3]; replicate 2, read-out: Inh % 2",-7%
same,inhibition at 100 µM,"[3]; replicate 1, read-out: Inh % 1",7.4%
same,inhibition at 100 µM,"[3]; replicate 2, read-out: Inh % 2",2.1%
same,IC50,"[3]; MDA-MB-436, 72 h, CellTiter-Glo, read-out: MDA-MB-436 IC50",> 100 µM
same,IC50,"[4]; CAPAN-1, 72 h, CellTiter-Glo, read-out: CAPAN-1 IC50",> 100 µM
same,inhibition at 0.00508 µM,"[4]; replicate 1, read-out: Inh % 1",0.0228%
same,inhibition at 0.00508 µM,"[4]; replicate 2, read-out: Inh % 2",-3.6%
same,inhibition at 0.0152 µM,"[4]; replicate 1, read-out: Inh % 1",-3.3%
same,inhibition at 0.0152 µM,"[4]; replicate 2, read-out: Inh % 2",-4.8%
same,inhibition at 0.0457 µM,"[4]; replicate 1, read-out: Inh % 1",0.238%
same,inhibition at 0.0457 µM,"[4]; replicate 2, read-out: Inh % 2",-10.3%
same,inhibition at […],"[4]; replicate 1, read-out: Inh % 1",4.7%
same,inhibition at […],"[4]; replicate 2, read-out: Inh % 2",-9.8%
same,inhibition at 0.41 µM,"[4]; replicate 1, read-out: Inh % 1",1.3%
same,inhibition at 0.41 µM,"[4]; replicate 2, read-out: Inh % 2",5.2%
same,inhibition at 1.23 µM,"[4]; replicate 1, read-out: Inh % 1",-5.5%
same,inhibition at 1.23 µM,"[4]; replicate 2, read-out: Inh % 2",3.8%
same,inhibition at 3.7 µM,"[4]; replicate 1, read-out: Inh % 1",4.6%
same,inhibition at 3.7 µM,"[4]; replicate 2, read-out: Inh % 2",-3%
same,inhibition at 11.11 µM,"[4]; replicate 1, read-out: Inh % 1",-2.8%
same,inhibition at 11.11 µM,"[4]; replicate 2, read-out: Inh % 2",-3.6%
same,inhibition at 33.33 µM,"[4]; replicate 1, read-out: Inh % 1",-7.9%
same,inhibition at 33.33 µM,"[4]; replicate 2, read-out: Inh % 2",-7.8%
same,inhibition at 100 µM,"[4]; replicate 1, read-out: Inh % 1",-10.8%
same,inhibition at 100 µM,"[4]; replicate 2, read-out: Inh % 2",-6.6%
